From patent publication US12338262B2 (Forward Therapeutics, Inc., priority 2022, dated 2025)

target: TNF-α (Homo sapiens, UniProt P01375); assay: TNF-α Induced HEK Blue Cellular Assay; assay type: cell-based; details: HEK Blue TNFα reporter cells, TNF-α 100 pg/ml, 24 hrs at 37° C., secreted alkaline phosphatase (QUANTI-Blue, 620 nm)
Method: TNF-α Induced HEK Bluet Cellular Assay
Test articles were diluted in DMSO and serially diluted into 384 well assay plate (Corning 3765), at final concentrations ranging from […] to 0.5 nM. HEK Blue™ TNFα reporter cells were added at a final density of 10,000 cell per well in assay media [DMEM (Gibco, cat #21063-029), 10% fetal bovine serum (ExcelBio, cat #FND500), 1% Penicillin-Streptomycin (Solarbio, cat #P1400-100]. TNF-α (R&D 210-TA-020/CF) was then added to the assay plate at a final concentration of 100 pg/ml. This plate was then incubated for 24 hrs at 37° C. and 5% CO2. Secreted alkaline phosphatase expression was then measured using QUANTI-Blue™ (Invivogen), according to manufacturer instructions and read on an Envision microplate reader at 620 nm.
Inhibition data for test compound over a range of concentration was plotted as percentage inhibition of the test compound (100%=maximum inhibition). IC50 values were determined after correcting for background [(sample read-mean of low control)/(mean of high control-mean of low control)] where by the low control is DMSO without stimulation and high control is DMSO with stimulation. The IC50 is defined as the concentration of test compound which produces 50% inhibition and was quantified using the 4 parameter logistic equation to fit the data.

TNF-α, sequence (P01375 77-233 limits assumed): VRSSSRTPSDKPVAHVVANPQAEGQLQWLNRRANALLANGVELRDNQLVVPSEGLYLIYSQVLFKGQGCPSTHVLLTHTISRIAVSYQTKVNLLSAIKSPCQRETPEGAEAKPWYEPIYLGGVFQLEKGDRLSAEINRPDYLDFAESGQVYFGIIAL

IC50 [µM] | Compound
≤ 0.1 | Cc1nc2cc(F)c(-c3cnc(P4(=O)CCCC4)nc3)nc2c(N[C@H](C)c2cc(C#N)ccc2F)c1Cl [Example 49, 3-[(1R)-1-({3-chloro-7-fluoro-2-methyl-6-[2-(1-oxo-1lambda5-phospholan-1-yl)pyrimidin-5-yl]-1,5-naphthyridin-4-yl}amino)ethyl]-4-fluorobenzonitrile]
≤ 0.1 | Cc1nc2cc(F)c(-c3ccc(P(C)(C)=O)nc3)nc2c(N[C@H](C)c2cccc(F)c2F)c1Cl [Example 50, 3-chloro-N-[(1R)-1-(2,3-difluorophenyl)ethyl]-6-[6-(dimethylphosphoryl)pyridin-3-yl]-7-fluoro-2-methyl-1,5-naphthyridin-4-amine]
≤ 0.1 | Cc1nc2cc(F)c(-c3ccc(P(C)(C)=O)nc3)nc2c(N[C@@H](C)c2cc(F)ccc2F)c1Cl [Example 51, 3-chloro-N-[(1S)-1-(2,5-difluorophenyl)ethyl]-6-[6-(dimethylphosphoryl)pyridin-3-yl]-7-fluoro-2-methyl-1,5-naphthyridin-4-amine]
≤ 1 | Cc1nc2cc(F)c(-c3ccc(P(C)(C)=O)nc3)nc2c(N[C@H](C)c2c(F)cccc2F)c1Cl [Example 52, 3-chloro-N-[(1R)-1-(2,6-difluorophenyl)ethyl]-6-[6-(dimethylphosphoryl)pyridin-3-yl]-7-fluoro-2-methyl-1,5-naphthyridin-4-amine]
≤ 1 | Cc1nc2cc(F)c(-c3ccc(P(C)(C)=O)nc3)nc2c(N[C@H](C)c2cc(F)ccc2F)c1Cl [Example 53, 3-chloro-N-[(1R)-1-(2,5-difluorophenyl)ethyl]-6-[6-(dimethylphosphoryl)pyridin-3-yl]-7-fluoro-2-methyl-1,5-naphthyridin-4-amine]
≤ 1 | Cc1nc2cc(F)c(-c3ccc(P(C)(C)=O)nc3)nc2c(N[C@@H](C)c2c(F)cccc2F)c1Cl [Example 54, 3-chloro-N-[(1S)-1-(2,6-difluorophenyl)ethyl]-6-[6-(dimethylphosphoryl)pyridin-3-yl]-7-fluoro-2-methyl-1,5-naphthyridin-4-amine]
10 to 30 | Cc1nc2cc(F)c(-c3cnc(P(C)(C)=O)nc3)nc2c(N[C@H](C)c2ccccc2C(F)(F)F)c1Cl [Example 55, 3-chloro-6-[2-(dimethylphosphoryl)pyrimidin-5-yl]-7-fluoro-2-methyl-N-[(1R)-1-[2-(trifluoromethyl)phenyl]ethyl]-1,5-naphthyridin-4-amine]
≤ 0.1 | Cc1nc2cc(F)c(-c3ccc(OCP(C)(C)=O)nc3)nc2c(N[C@H](C)c2ccccc2F)c1Cl [Example 56, 3-chloro-6-{6-[(dimethylphosphoryl)methoxy]pyridin-3-yl}-7-fluoro-N-[(1R)-1-(2-fluorophenyl)ethyl]-2-methyl-1,5-naphthyridin-4-amine]
≤ 0.1 | CC[P@@](C)(=O)c1ccc(-c2nc3c(N[C@H](C)c4cc(C#N)ccc4F)c(Cl)c(C)nc3cc2F)cn1 [Example 57]
10 to 30 | Cc1nc2cc(F)c(-c3ccc(P(C)(C)=O)nc3)nc2c(N[C@H](CO)c2ccccc2F)c1Cl [Example 59, (2S)-2-({3-chloro-6-[6-(dimethylphosphoryl)pyridin-3-yl]-7-fluoro-2-methyl-1,5-naphthyridin-4-yl}amino)-2-(2-fluorophenyl)ethanol]
10 to 30 | Cc1nc2cc(F)c(-c3ccc(P(C)(C)=O)nc3)nc2c(N[C@@H](CO)c2ccccc2F)c1Cl [Example 60, (2R)-2-({3-chloro-6-[6-(dimethylphosphoryl)pyridin-3-yl]-7-fluoro-2-methyl-1,5-naphthyridin-4-yl}amino)-2-(2-fluorophenyl)ethanol]
≤ 1 | Cc1cc(P(C)(C)=O)ncc1-c1nc2c(N[C@H](C)c3cc(C#N)ccc3F)c(Cl)c(C)nc2cc1F [Example 61, 3-[(1R)-1-({3-chloro-6-[6-(dimethylphosphoryl)-4-methylpyridin-3-yl]-7-fluoro-2-methyl-1,5-naphthyridin-4-yl}amino)ethyl]-4-fluorobenzonitrile]
≤ 1 | Cc1cc(P(C)(C)=O)ncc1-c1nc2c(N[C@H](C)c3ccccc3F)c(Cl)c(C)nc2cc1F [Example 62, 3-chloro-6-[6-(dimethylphosphoryl)-4-methylpyridin-3-yl]-7-fluoro-N-[(1R)-1-(2-fluorophenyl)ethyl]-2-methyl-1,5-naphthyridin-4-amine]
≤ 1 | Cc1nc2cc(F)c(-c3cnc(P(C)(C)=O)nc3)cc2c(N[C@H](C)c2cccc(F)c2F)c1Cl [Example 65, 3-chloro-N-[(1R)-1-(2,3-difluorophenyl)ethyl]-6-[2-(dimethylphosphoryl)pyrimidin-5-yl]-7-fluoro-2-methylquinolin-4-amine]
≤ 1 | Cc1cn(-c2ccc(F)c([C@@H](C)Nc3c(Cl)c(C)nc4cc(F)c(-c5ccc(P(C)(C)=O)nc5)nc34)c2)cn1 [Example 66, 3-chloro-6-[6-(dimethylphosphoryl)pyridin-3-yl]-7-fluoro-N-[(1R)-1-[2-fluoro-5-(4-methylimidazol-1-yl)phenyl]ethyl]-2-methyl-1,5-naphthyridin-4-amine]
≤ 0.1 | Cc1nc2cc(F)c(-c3ccc(P(C)(C)=O)nc3)cc2c(N[C@H](C)c2cccc(F)c2F)c1Cl [Example 67, 3-chloro-N-[(1R)-1-(2,3-difluorophenyl)ethyl]-6-[6-(dimethylphosphoryl)pyridin-3-yl]-7-fluoro-2-methylquinolin-4-amine]
≤ 0.1 | CC[C@H](Nc1c(Cl)c(C)nc2cc(F)c(-c3ccc(P(C)(C)=O)nc3)nc12)c1ncccc1F [Example 68, (S)-(5-(7-chloro-3-fluoro-8-((1-(3-fluoropyridin-2-yl)propyl)amino)-6-methyl-1,5-naphthyridin-2-yl)pyridin-2-yl)dimethylphosphine oxide]
≤ 1 | CC[C@@H](Nc1c(Cl)c(C)nc2cc(F)c(-c3ccc(P(C)(C)=O)nc3)nc12)c1ncccc1F [Example 69, (R)-(5-(7-chloro-3-fluoro-8-((1-(3-fluoropyridin-2-yl)propyl)amino)-6-methyl-1,5-naphthyridin-2-yl)pyridin-2-yl)dimethylphosphine oxide]
≤ 0.1 | Cc1nc2cc(F)c(-c3ccc(P(C)(C)=O)nc3)nc2c(N[C@@H](c2ccccc2F)C(F)(F)F)c1Cl [Example 70, 3-chloro-6-[6-(dimethylphosphoryl)pyridin-3-yl]-7-fluoro-2-methyl-N-[(1S)-2,2,2-trifluoro-1-(2-fluorophenyl)ethyl]-1,5-naphthyridin-4-amine]
≤ 1 | Cc1nc2cc(F)c(-c3cnc(P(C)(C)=O)nc3)nc2c(N[C@@H](c2ccccc2F)C(F)(F)F)c1Cl [Example 71, 3-chloro-6-[2-(dimethylphosphoryl)pyrimidin-5-yl]-7-fluoro-2-methyl-N-[(1S)-2,2,2-trifluoro-1-(2-fluorophenyl)ethyl]-1,5-naphthyridin-4-amine]
≤ 1 | Cc1nc2cc(F)c(-c3ccc(P(C)(C)=O)nc3)c(F)c2c(N[C@H](C)c2ccccc2F)c1Cl [Example 72, 3-chloro-6-[6-(dimethylphosphoryl)pyridin-3-yl]-5,7-difluoro-N-[(1R)-1-(2-fluorophenyl)ethyl]-2-methylquinolin-4-amine]
≤ 1 | CC[C@H](Nc1c(Cl)c(C)nc2cc(F)c(-c3ccc(P(C)(C)=O)nc3)c(F)c12)c1ncccc1F [Example 73, (S)-(5-(3-chloro-5,7-difluoro-4-((1-(3-fluoropyridin-2-yl)propyl)amino)-2-methylquinolin-6-yl)pyridin-2-yl)dimethylphosphine oxide]
≤ 1 | CC[C@@H](Nc1c(Cl)c(C)nc2cc(F)c(-c3ccc(P(C)(C)=O)nc3)c(F)c12)c1ncccc1F [Example 74, (R)-(5-(3-chloro-5,7-difluoro-4-((1-(3-fluoropyridin-2-yl)propyl)amino)-2-methylquinolin-6-yl)pyridin-2-yl)dimethylphosphine oxide]
≤ 0.1 | Cc1nc2cc(F)c(-c3ccc(P(C)(C)=O)nc3)nc2c(N[C@H](C)c2cccnc2)c1Cl [Example 75, 3-chloro-6-[6-(dimethylphosphoryl)pyridin-3-yl]-7-fluoro-2-methyl-N-[(1R)-1-(pyridin-3-yl)ethyl]-1,5-naphthyridin-4-amine]
≤ 0.1 | CC[C@H](Nc1c(Cl)c(C)nc2cc(F)c(-c3ccc(P(C)(C)=O)nc3)nc12)c1ccccn1 [Example 76, 3-chloro-6-[6-(dimethylphosphoryl)pyridin-3-yl]-7-fluoro-2-methyl-N-[(1S)-1-(pyridin-2-yl)propyl]-1,5-naphthyridin-4-amine]
≤ 1 | CC[C@@H](Nc1c(F)c(C)nc2cc(F)c(-c3ccc(P(C)(C)=O)nc3)nc12)c1ccccc1F [Example 77, 6-[6-(dimethylphosphoryl)pyridin-3-yl]-3,7-difluoro-N-[(1R)-1-(2-fluorophenyl)propyl]-2-methyl-1,5-naphthyridin-4-amine]
≤ 0.1 | Cc1nc2cc(F)c(-c3ccc(P(C)(C)=O)nc3)nc2c(N[C@H](C)c2cccc(Cl)c2F)c1Cl [Example 78, 3-chloro-N-[(1R)-1-(3-chloro-2-fluorophenyl)ethyl]-6-[6-(dimethylphosphoryl)pyridin-3-yl]-7-fluoro-2-methyl-1,5-naphthyridin-4-amine]
